For assay [1], the system named is Fusarium (镰刀菌). Put plainly: Fusarium growth curve (OD) in liquid amino acid media, 96-well plate. Type of assay: cell-based. As to conditions: THFA 10 mM, each amino acid group, 29℃, 72 h, Figure 5B-F.
Assay [2] relates to Fusarium (镰刀菌). In words: Inhibition of Fusarium on solid media with mixed amino acids as nitrogen source (simulated cornea). Type of assay: cell-based. As to conditions: THFA 10 mM, cultured as Example 1.
In assay [3] the test system is Fusarium (镰刀菌). In words: Inhibition of Fusarium colony growth on solid medium with proline as sole nitrogen source (pro- medium). Type of assay: cell-based, Fusarium (CGMCC3.5840). As to conditions: 29℃, 72 h, Figure 2.

Here are results for one compound from patent CN114767685A, “四氢叶酸在抑菌或者预防或治疗眼部疾病中的用途” (Peking University Third Hospital Peking University Third …, priority 2022, dated 2022).

On to `Nc1nc2c(c(=O)[nH]1)N[C@H](CNc1ccc(C(=O)N[C@@H](CCC(=O)O)C(=O)O)cc1)CN2` [THFA, 5,6,7,8-四氢叶酸], for which the “Fusarium growth (absorbance, OD, growth curve)” value in the assay with Fusarium (镰刀菌) [1] is recorded as “镰刀菌生长均明显下降”. Moreover, the “inhibition of Fusarium growth” value in the assay with Fusarium (镰刀菌) [2] (solid media with different mixed amino acid nitrogen sources (taurine, glutamine, glycine, proline), Figure 4) is “均能够显著抑制镰刀菌生长”; in the assay with Fusarium (镰刀菌) [3] (THFA 1.25, 2.5, 5, 10, 20 mM vs 0 mM), “镰刀菌的生长受到明显抑制”. Besides, the colony pigment result with Fusarium (镰刀菌) [2] (solid media with different mixed amino acids, Figure 4B-D) is listed as “色素明显减弱”. In addition, the “correlation of degree of inhibition with THFA concentration” value in the assay on Fusarium (镰刀菌) [3] (THFA 0-20 mM) is “抑制程度与THFA浓度具有相关性”. For the same compound, the colony diameter result was “明显小于2.5mM、1.25mM和0mM组” in the assay on Fusarium (镰刀菌) [3] (THFA 5 mM), “均显著小于5mM组” with Fusarium (镰刀菌) [3] (THFA 10 mM) and “均显著小于5mM组” in the assay on Fusarium (镰刀菌) [3] (THFA 20 mM).
